Data taken from patent EP2878292A2, “Application of cosmetic compositions for the inactivation and/or elimination of skin mites” (Henkel AG & Co. KGaA, priority 2013, dated 2015).

System: Haustaubmilben
Type: in vivo
Description: Die zu testende Substanz wurde mit Wasser auf die vorgesehene Einsatzkonzentration verdünnt (s.u.). Haustaubmilben, die aufgrund ihrer großen Ähnlichkeit als Vergleich zu Haarbalgmilben (Demodex) verwendet werden, wurden aus ihrem Futter isoliert und auf 1,5 cm x 1,5 cm große Filterpapierstücke übertragen. Etwa 100 Milben je Ansatz wurden mit 50 µl der zu testenden Substanzen in den vorhergesehenen Verdünnungen betropft. Die überschüssige Flüssigkeit wurde nach 10 Sekunden abgesaugt. Die noch feuchten Filterpapiere mit den Milben wurden nach der Behandlung in eine Petrischale gebracht, die mit einem Deckel und einer Umrandung mit Paraffin verschlossen wurden, um sicherzustellen, dass evtl. überlebende Milben nicht entweichen können. Die Milben können nach Beginn einer Behandlung - gleichgültig mit welchem Mittel - unbeweglich werden, sich jedoch später wieder erholen und ihre Beweglichkeit zumindest für kurze Zeit wiedererlangen. Andererseits ist es auch möglich, dass Milben in den ersten Stunden nach einer Behandlung noch vital erscheinen, jedoch bereits so stark geschädigt sind, dass sie innerhalb eines Tages bis zu 2-3 Tagen sterben. Daher wurden die Petrischalen für einen Tag aufbewahrt, und die Milben dann erst auf ihre Vitalität bewertet.
Die Anzahl der toten und lebenden Milben wurde bestimmt und in % der Sterberate umgerechnet.
Die Versuche wurden zweifach durchgeführt. […]

Sterberate (Mittelwert) (house dust mite, in vivo, topical, 24 h): 10,9%
SMILES: CCCCCCCCC(O)CO (centres unmarked) [Symclariol, 1,2-Decanediol]
Inaktivierung bzw. Eliminierung von Milben (conclusion in words drawn from the test at 2%): wirksam
